Among the data in patent US10806871B2, “Inhalable dry powders” (priority 2012, dated 2020) are solubility, solubility in water and solubility in ethanol values, retold here.

Like-named read-outs stand apart in the source and are kept apart here.

For data set [1] the following is noted: cited from earlier work.
The nature of data set [2]: Solubility of therapeutic agents in water or ethanol.

Take `OC[C@H]1O[C@H](O[C@H]2O[C@H](CO)[C@@H](O)[C@H](O)[C@H]2O)[C@H](O)[C@@H](O)[C@@H]1O` [trehalose]: the solubility in data set [1] (at 20 C) was 68.9 g per 100 g of water. Turning to `OC[C@@H](O)[C@@H](O)[C@H](O)[C@H](O)CO` [mannitol], the solubility in water entry in data set [1] is “about 182 g/L”.

Regarding `OCc1cc(C(O)CNCCCCCCOCCCCc2ccccc2)ccc1O` (stereo not shown) [salmeterol xinafoate], in data set [2], the solubility in ethanol entry is on record as “slightly soluble in ethanol” and the solubility in water entry was “practically insoluble in water”.
